Test results taken from BindingDB's records for doi:10.1021/jm960124f (1996).

Biological target: Aldo-keto reductase family 1 member A1 (Bos taurus)
Assay: Evaluated for inhibition of Aldehyde reductase 1

Structure (SMILES) | IC50 [µM]
O=C(O)Cn1nc2c(c(C(=O)O)c1=O)Cc1ccccc1-2 [2-Carboxymethyl-3-oxo-3,5-dihydro-2H-indeno[1,2-c]pyridazine-4-carboxylic acid] | 136
Cc1cc(C)c2c(c1)-c1nn(CC(=O)O)c(=O)cc1CC2 [(7,9-Dimethyl-3-oxo-5,6-dihydro-3H-benzo[h]cinnolin-2-yl)-acetic acid] | 295
Cc1cc(C)c2c(c1)-c1nn(CCC(=O)O)c(=O)cc1CC2 [3-(7,9-Dimethyl-3-oxo-5,6-dihydro-3H-benzo[h]cinnolin-2-yl)-propionic acid] | 289
O=C(O)Cn1nc2c(cc1=O)Cc1ccccc1-2 [(3-Oxo-3,5-dihydro-indeno[1,2-c]pyridazin-2-yl)-acetic acid] | 107
O=C(O)Cn1nc2c(cc1=O)CCc1ccccc1-2 [(3-Oxo-5,6-dihydro-3H-benzo[h]cinnolin-2-yl)-acetic acid] | 156
O=C(O)Cn1nc2c(c(C(=O)O)c1=O)CCc1ccccc1-2 [2-Carboxymethyl-3-oxo-2,3,5,6-tetrahydro-benzo[h]cinnoline-4-carboxylic acid] | 161
O=C(O)CCCn1nc2c(cc1=O)CCc1ccccc1-2 [4-(3-Oxo-5,6-dihydro-3H-benzo[h]cinnolin-2-yl)-butyric acid] | 92.6
